This is an account of results in US20250129104A1, “7H-PYRROLO[2,3-D]PYRIMIDINES AND PREPARATION AND USES THEREOF” (BioSplice Therapeutics, Inc., priority 2021, published 2025).

The EC50 is the concentration giving half of the maximal effect.

The target of this assay is recombinant DYRK1A kinase (Homo sapiens (Human), UniProt Q13627). In words: DYRK1A kinase assay (Ser/Thr 18 peptide Z-lyte FRET assay). As to conditions: DYRK1A kinase activity; 15 μM ATP, 1 h room temperature; method text calls the value IC50. In kind it is biochemical. Put shortly: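 Recombinant human DYRK1A (0.25 μg/mL) with 15 μM ATP and 4 μM Ser/Thr 18 peptide, 1 h at room temperature with compound (11-point, 1:3, 10 μM top, duplicate). Z-lyte development 1 h, then coumarin/fluorescein FRET emission ratio converted to % phosphorylation; IC50 by non-linear regression.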
On to `COc1nc(N[C@H]2CC[C@@](C)(O)CC2)nc2[nH]cc(-c3cc(F)c4nccn4c3)c12` [Compound 2186, cis-4-((5-(8-Fluoroimidazo[1,2-a]pyridin-6-yl)-4-methoxy-7H-pyrrolo[2,3-d]pyrimidin-2-yl)amino)-1-methylcyclohexan-1-ol], for which the EC50 was 2.3 nM.

On to `COc1nc(N[C@H]2CC[C@@H](OCC(F)F)CC2)nc2[nH]cc(-c3cc(F)c4nccn4c3)c12` [Compound 2187, N-(cis-4-(2,2-Difluoroethoxy)cyclohexyl)-5-(8-fluoroimidazo[1,2-a]pyridin-6-yl)-4-methoxy-7H-pyrrolo[2,3-d]pyrimidin-2-amine], for which the EC50 turned out to be 3.6 nM.

With `COc1nc(NC2CCC3(CC2)OCCO3)nc2[nH]cc(-c3cc(F)c4nccn4c3)c12` [Compound 2188, 5-(8-Fluoroimidazo[1,2-a]pyridin-6-yl)-4-methoxy-N-(1,4-dioxaspiro[4.5]decan-8-yl)-7H-pyrrolo[2,3-d]pyrimidin-2-amine], the concentration giving a half-maximal response (EC50) worked out at 1.9 nM.

In the case of `CCOc1nc(N[C@H](C)C(F)(F)F)nc2[nH]cc(-c3cc(F)c4nccn4c3)c12` [Compound 2189, (R)-4-Ethoxy-5-(8-fluoroimidazo[1,2-a]pyridin-6-yl)-N-(1,1,1-trifluoropropan-2-yl)-7H-pyrrolo[2,3-d]pyrimidin-2-amine], the 50% effective concentration (EC50) was 8.1 nM.

On to `CCOc1nc(N[C@H]2CC[C@@H](O)CC2)nc2[nH]cc(-c3cc(F)c4nccn4c3)c12` [Compound 2190, cis-4-((4-Ethoxy-5-(8-fluoroimidazo[1,2-a]pyridin-6-yl)-7H-pyrrolo[2,3-d]pyrimidin-2-yl)amino)cyclohexan-1-ol], for which the concentration for a half-maximal effect (EC50) is 3 nM.

On to `Cn1nnc2ccc(-c3c[nH]c4nc(N[C@H]5CC[C@@](C)(O)CC5)ncc34)cc21` [Compound 2191, cis-1-Methyl-4-((5-(1-methyl-1H-benzo[d][1,2,3]triazol-6-yl)-7H-pyrrolo[2,3-d]pyrimidin-2-yl)amino)cyclohexan-1-ol], for which the EC50 is 4.7 nM.

For the compound `Cn1nnc2ccc(-c3c[nH]c4nc(N[C@H]5CC[C@@H](OCC(F)F)CC5)ncc34)cc21` [Compound 2192, N-(cis-4-(2,2-Difluoroethoxy)cyclohexyl)-5-(1-methyl-1H-benzo[d][1,2,3]triazol-6-yl)-7H-pyrrolo[2,3-d]pyrimidin-2-amine], the EC50 worked out at 6.9 nM.

`COc1nc(N[C@H](C)C(F)(F)F)nc2[nH]cc(-c3ccc4nnn(C)c4c3)c12` [Compound 2193, (R)-4-Methoxy-5-(1-methyl-1H-benzo[d][1,2,3]triazol-6-yl)-N-(1,1,1-trifluoropropan-2-yl)-7H-pyrrolo[2,3-d]pyrimidin-2-amine]: the 50% effective concentration (EC50) was 2.1 nM.

Take `COC[C@@H](C)Nc1nc(OC)c2c(-c3ccc4nnn(C)c4c3)c[nH]c2n1` [Compound 2194, (R)-4-Methoxy-N-(1-methoxypropan-2-yl)-5-(1-methyl-1H-benzo[d][1,2,3]triazol-6-yl)-7H-pyrrolo[2,3-d]pyrimidin-2-amine]: the 50% effective concentration (EC50) was found to be 5.5 nM.

Turning to `COc1nc(NC2CCN(C)CC2)nc2[nH]cc(-c3ccc4nnn(C)c4c3)c12` [Compound 2195, 4-Methoxy-5-(1-methyl-1H-benzo[d][1,2,3]triazol-6-yl)-N-(1-methylpiperidin-4-yl)-7H-pyrrolo[2,3-d]pyrimidin-2-amine], the concentration for a half-maximal effect (EC50) is 9.4 nM.

Take `CCOc1nc(N[C@H](C)C(F)(F)F)nc2[nH]cc(-c3ccc4nnn(C)c4c3)c12` [Compound 2196, (R)-4-Ethoxy-5-(1-methyl-1H-benzo[d][1,2,3]triazol-6-yl)-N-(1,1,1-trifluoropropan-2-yl)-7H-pyrrolo[2,3-d]pyrimidin-2-amine]: the EC50 was 11.6 nM.

Turning to `CCOc1nc(N[C@H]2CC[C@@H](O)CC2)nc2[nH]cc(-c3ccc4nnn(C)c4c3)c12` [Compound 2197, cis-4-((4-Ethoxy-5-(1-methyl-1H-benzo[d][1,2,3]triazol-6-yl)-7H-pyrrolo[2,3-d]pyrimidin-2-yl)amino)cyclohexan-1-ol], the EC50 was 1.5 nM.

Turning to `COc1nc(NC2CCC(F)(F)CC2)nc2[nH]cc(-c3ccc4nnn(CC(F)F)c4c3)c12` [Compound 2198, N-(4,4-Difluorocyclohexyl)-5-(1-(2,2-difluoroethyl)-1H-benzo[d][1,2,3]triazol-6-yl)-4-methoxy-7H-pyrrolo[2,3-d]pyrimidin-2-amine], the EC50 stood at 170 nM.

On to `FC(F)CO[C@H]1CC[C@@H](Nc2ncc3c(-c4ccc5nccn5n4)c[nH]c3n2)CC1` [Compound 2199, N-(cis-4-(2,2-Difluoroethoxy)cyclohexyl)-5-(imidazo[1,2-b]pyridazin-6-yl)-7H-pyrrolo[2,3-d]pyrimidin-2-amine], for which the concentration giving a half-maximal response (EC50) came to 2.2 nM.

For `[2H]C([2H])([2H])O[C@H]1CC[C@@H](Nc2ncc3c(-c4ccn5nccc5c4)c[nH]c3n2)CC1` [Compound 2200, N-(cis-4-(Methoxy-d3)cyclohexyl)-5-(pyrazolo[1,5-a]pyridin-5-yl)-7H-pyrrolo[2,3-d]pyrimidin-2-amine], the EC50 was found to be 2.6 nM.

For the compound `FC(F)CO[C@H]1CC[C@@H](Nc2ncc3c(-c4ccn5nccc5c4)c[nH]c3n2)CC1` [Compound 2201, N-(cis-4-(2,2-Difluoroethoxy)cyclohexyl)-5-(pyrazolo[1,5-a]pyridin-5-yl)-7H-pyrrolo[2,3-d]pyrimidin-2-amine], the EC50 was 5 nM.

`OCCO[C@H]1CC[C@@H](Nc2ncc3c(-c4ccn5nccc5c4)c[nH]c3n2)CC1` [Compound 2202, 2-((cis-4-((5-(Pyrazolo[1,5-a]pyridin-5-yl)-7H-pyrrolo[2,3-d]pyrimidin-2-yl)amino)cyclohexyl)oxy)ethan-1-ol]: the EC50 is 3.9 nM.

Regarding `COCCO[C@H]1CC[C@@H](Nc2ncc3c(-c4ccn5nccc5c4)c[nH]c3n2)CC1` [Compound 2203, N-(cis-4-(2-Methoxyethoxy)cyclohexyl)-5-(pyrazolo[1,5-a]pyridin-5-yl)-7H-pyrrolo[2,3-d]pyrimidin-2-amine], the concentration giving a half-maximal response (EC50) came out at 3.4 nM.

With `COc1nc(N[C@H](C)C(F)(F)F)nc2[nH]cc(-c3ccn4nccc4c3)c12` [Compound 2204, (R)-4-Methoxy-5-(pyrazolo[1,5-a]pyridin-5-yl)-N-(1,1,1-trifluoropropan-2-yl)-7H-pyrrolo[2,3-d]pyrimidin-2-amine], the EC50 was 15.4 nM.

As to `COC[C@@H](C)Nc1nc(OC)c2c(-c3ccn4nccc4c3)c[nH]c2n1` [Compound 2205, (R)-4-Methoxy-N-(1-methoxypropan-2-yl)-5-(pyrazolo[1,5-a]pyridin-5-yl)-7H-pyrrolo[2,3-d]pyrimidin-2-amine], the concentration giving a half-maximal response (EC50) worked out at 79.5 nM.

As to `COc1nc(NC2CCC(F)(F)CC2)nc2[nH]cc(-c3ccn4nccc4c3)c12` [Compound 2206, N-(4,4-Difluorocyclohexyl)-4-methoxy-5-(pyrazolo[1,5-a]pyridin-5-yl)-7H-pyrrolo[2,3-d]pyrimidin-2-amine], the 50% effective concentration (EC50) turned out to be 3.2 nM.

Take `COc1nc(N[C@H]2CC[C@@H](O)CC2)nc2[nH]cc(-c3ccn4nccc4c3)c12` [Compound 2207, cis-4-((4-Methoxy-5-(pyrazolo[1,5-a]pyridin-5-yl)-7H-pyrrolo[2,3-d]pyrimidin-2-yl)amino)cyclohexan-1-ol]: the EC50 worked out at 1.7 nM.

Consider `COc1nc(N[C@H]2CC[C@@](C)(O)CC2)nc2[nH]cc(-c3ccn4nccc4c3)c12` [Compound 2208, cis-4-((4-Methoxy-5-(pyrazolo[1,5-a]pyridin-5-yl)-7H-pyrrolo[2,3-d]pyrimidin-2-yl)amino)-1-methylcyclohexan-1-ol], for which the half-maximal effective concentration (EC50) turned out to be 4.3 nM.

Consider `COc1nc(N[C@H]2CC[C@](C)(O)CC2)nc2[nH]cc(-c3ccn4nccc4c3)c12` [Compound 2209, trans-4-((4-Methoxy-5-(pyrazolo[1,5-a]pyridin-5-yl)-7H-pyrrolo[2,3-d]pyrimidin-2-yl)amino)-1-methylcyclohexan-1-ol], for which the concentration for a half-maximal effect (EC50) turned out to be 1.6 nM.

As for `[2H]C([2H])([2H])O[C@H]1CC[C@@H](Nc2nc(OC)c3c(-c4ccn5nccc5c4)c[nH]c3n2)CC1` [Compound 2210, 4-Methoxy-N-(cis-4-(methoxy-d3)cyclohexyl)-5-(pyrazolo[1,5-a]pyridin-5-yl)-7H-pyrrolo[2,3-d]pyrimidin-2-amine], the concentration giving a half-maximal response (EC50) worked out at 3.4 nM.

For the compound `COc1nc(N[C@H]2CC[C@@H](OC(F)F)CC2)nc2[nH]cc(-c3ccn4nccc4c3)c12` [Compound 2211, N-(cis-4-(Difluoromethoxy)cyclohexyl)-4-methoxy-5-(pyrazolo[1,5-a]pyridin-5-yl)-7H-pyrrolo[2,3-d]pyrimidin-2-amine], the concentration giving a half-maximal response (EC50) is 126 nM.

Turning to `COc1nc(N[C@H]2CC[C@@H](OCC(F)F)CC2)nc2[nH]cc(-c3ccn4nccc4c3)c12` [Compound 2212, N-(cis-4-(2,2-Difluoroethoxy)cyclohexyl)-4-methoxy-5-(pyrazolo[1,5-a]pyridin-5-yl)-7H-pyrrolo[2,3-d]pyrimidin-2-amine], the half-maximal effective concentration (EC50) was 6.6 nM.

Consider `COc1nc(N[C@H]2CC[C@@H](OCCO)CC2)nc2[nH]cc(-c3ccn4nccc4c3)c12` [Compound 2213, 2-((cis-4-((4-Methoxy-5-(pyrazolo[1,5-a]pyridin-5-yl)-7H-pyrrolo[2,3-d]pyrimidin-2-yl)amino)cyclohexyl)oxy)ethan-1-ol], for which the concentration giving a half-maximal response (EC50) came to 71.9 nM.

Regarding `COCCO[C@H]1CC[C@@H](Nc2nc(OC)c3c(-c4ccn5nccc5c4)c[nH]c3n2)CC1` [Compound 2214, 4-Methoxy-N-(cis-4-(2-methoxyethoxy)cyclohexyl)-5-(pyrazolo[1,5-a]pyridin-5-yl)-7H-pyrrolo[2,3-d]pyrimidin-2-amine], the EC50 is 1.7 nM.

As for `COc1nc(NC2CCC3(CC2)OCCO3)nc2[nH]cc(-c3ccn4nccc4c3)c12` [Compound 2215, 4-Methoxy-5-(pyrazolo[1,5-a]pyridin-5-yl)-N-(1,4-dioxaspiro[4.5]decan-8-yl)-7H-pyrrolo[2,3-d]pyrimidin-2-amine], the EC50 worked out at 1.6 nM.

Take `COc1nc(NC2CCN(C)CC2)nc2[nH]cc(-c3ccn4nccc4c3)c12` [Compound 2216, 4-Methoxy-N-(1-methylpiperidin-4-yl)-5-(pyrazolo[1,5-a]pyridin-5-yl)-7H-pyrrolo[2,3-d]pyrimidin-2-amine]: the half-maximal effective concentration (EC50) stood at 7.4 nM.
